Measurements from patent US20110105515A1, “TARGETING THE ONCOPROTEIN NUCLEOPHOSMIN” (President and Fellows of Harvard College, priority 2007, published 2011).

Columns and labels:
[1] = tested on: NCI-H23; settings: NCI-H23 (Non-Small Cell Lung Cancer), 48 hours, SRB
[2] = tested on: DU-145; settings: DU-145 (Prostate Cancer), 48 hours, SRB
[3] = tested on: BT-549; settings: BT-549 (Breast Cancer), 48 hours, SRB
[4] = tested on: HCC-2998; settings: HCC-2998 (Colon Cancer), 48 hours, SRB
[5] = tested on: SK-MEL-2; settings: SK-MEL-2 (Melanoma), 48 hours, SRB
[6] = tested on: SNB-75; settings: SNB-75 (CNS Cancer), 48 hours, SRB
[7] = tested on: SF-268; settings: SF-268 (CNS Cancer), 48 hours, SRB
[8] = tested on: MALME-3M; settings: MALME-3M (Melanoma), 48 hours, SRB
[9] = tested on: OVCAR-3; settings: OVCAR-3 (Ovarian Cancer), 48 hours, SRB
[10] = tested on: HS578T; settings: HS578T (Breast Cancer), 48 hours, SRB
[11] = tested on: HT29; settings: HT29 (Colon Cancer), 48 hours, SRB
[12] = tested on: MDA-MB-468; settings: MDA-MB-468 (Breast Cancer), 48 hours, SRB
[13] = tested on: HCT-116; settings: HCT-116 (Colon Cancer), 48 hours, SRB
[14] = tested on: KM12; settings: KM12 (Colon Cancer), 48 hours, SRB
[15] = tested on: T-47D; settings: T-47D (Breast Cancer), 48 hours, SRB
[16] = tested on: IGROV1; settings: IGROV1 (Ovarian Cancer), 48 hours, SRB
[17] = tested on: MCF7; settings: MCF7 (Breast Cancer), 48 hours, SRB
[18] = tested on: CCRF-CEM; settings: CCRF-CEM (Leukemia), 48 hours, SRB
[19] = tested on: MOLT-4; settings: MOLT-4 (Leukemia), 48 hours, SRB
[20] = tested on: NCI-H226; settings: NCI-H226 (Non-Small Cell Lung Cancer), 48 hours, SRB
[21] = tested on: OVCAR-5; settings: OVCAR-5 (Ovarian Cancer), 48 hours, SRB
[22] = tested on: SK-MEL-5; settings: SK-MEL-5 (Melanoma), 48 hours, SRB
[23] = tested on: A498; settings: A498 (Renal Cancer), 48 hours, SRB
[24] = tested on: SN12C; settings: SN12C (Renal Cancer), 48 hours, SRB
[25] = tested on: NCI-H522; settings: NCI-H522 (Non-Small Cell Lung Cancer), 48 hours, SRB
[26] = tested on: UACC62; settings: UACC62 (Melanoma), 48 hours, SRB
[27] = tested on: HL-60(TB); settings: HL-60(TB) (Leukemia), 48 hours, SRB
[28] = tested on: SF-539; settings: SF-539 (CNS Cancer), 48 hours, SRB
[29] = tested on: HCT-15; settings: HCT-15 (Colon Cancer), 48 hours, SRB
[30] = tested on: U251; settings: U251 (CNS Cancer), 48 hours, SRB
[31] = tested on: SK-MEL-28; settings: SK-MEL-28 (Melanoma), 48 hours, SRB
[32] = tested on: SK-OV-3; settings: SK-OV-3 (Ovarian Cancer), 48 hours, SRB

In the case of CN(C)c1cccc2c(S(=O)(=O)NCCCCCCCCCCOc3ccc4c(c3)[N+]([O-])=C3C4=C[C@@]45NC(=O)C6(CCCN6C4=O)CC5C3(C)C)cccc12 (stereo partly drawn) [Dansyl Analogue], the GI50 [1] is reported as 0.581 µM, the TGI [1] is reported as 2.48 µM and the CC50 ([1]; read-out: LC50) is reported as 9.05 µM. For the same molecule, the GI50 [2] was 0.271 µM, the TGI [2] was 0.706 µM and the CC50 ([2]; read-out: LC50) was 2.45 µM. The GI50 [3] was 0.515 µM, the TGI [3] was 6.73 µM and the CC50 ([3]; read-out: LC50) was > 100 µM. It also gave a GI50 [4] of 0.946 µM, a TGI [4] of 2.32 µM and a CC50 ([4]; read-out: LC50) of 5.49 µM. For the same molecule, the GI50 [5] was 1.07 µM, the TGI [5] was 3.23 µM and the CC50 ([5]; read-out: LC50) was 9.82 µM. It also gave a GI50 [6] of 0.273 µM, a TGI [6] of 0.93 µM and a CC50 ([6]; read-out: LC50) of 3.43 µM. It also gave a GI50 [7] of 0.282 µM, a TGI [7] of 0.853 µM and a CC50 ([7]; read-out: LC50) of 3.69 µM. It also gave a GI50 [8] of 0.426 µM, a TGI [8] of 2.11 µM and a GI50 [9] of 0.201 µM. It also gave a TGI [9] of 0.413 µM, a CC50 ([9]; read-out: LC50) of 0.849 µM and a GI50 [10] of 0.355 µM. The TGI [10] was 36.9 µM, the CC50 ([10]; read-out: LC50) was > 100 µM and the GI50 [11] was 0.454 µM. The TGI [11] was 1.51 µM, the CC50 ([11]; read-out: LC50) was 3.96 µM and the GI50 [12] was 0.202 µM. For the same molecule, the TGI [12] was 0.436 µM, the CC50 ([12]; read-out: LC50) was 0.941 µM and the GI50 [13] was 0.349 µM. It also gave a TGI [13] of 1.15 µM, a CC50 ([13]; read-out: LC50) of 5.98 µM and a GI50 [14] of 1.25 µM. For the same molecule, the TGI [14] was 2.88 µM, the CC50 ([14]; read-out: LC50) was 6.6 µM and the GI50 [15] was 0.152 µM. It also gave a TGI [15] of 0.572 µM, a CC50 ([15]; read-out: LC50) of 3.14 µM and a GI50 [16] of 0.272 µM. The TGI [16] was 0.695 µM, the CC50 ([16]; read-out: LC50) was 3.39 µM and the GI50 [17] was 0.232 µM. It also gave a TGI [17] of 0.724 µM, a CC50 ([17]; read-out: LC50) of 2.61 µM and a GI50 [18] of 0.246 µM. The TGI [18] was >100 µM, the CC50 ([18]; read-out: LC50) was > 100 µM and the GI50 [19] was 0.276 µM. The CC50 ([19]; read-out: LC50) was > 100 µM, the GI50 [20] was 1.03 µM and the TGI [20] was 3.03 µM. For the same molecule, the CC50 ([20]; read-out: LC50) was 8.93 µM, the GI50 [21] was 1.46 µM and the TGI [21] was 2.96 µM. It also gave a CC50 ([21]; read-out: LC50) of 5.97 µM, a GI50 [22] of 0.373 µM and a TGI [22] of 1.47 µM. For the same molecule, the CC50 ([22]; read-out: LC50) was 3.84 µM, the GI50 [23] was 0.25 µM and the TGI [23] was 1.01 µM. It also gave a CC50 ([23]; read-out: LC50) of 4.4 µM, a GI50 [24] of 0.401 µM and a TGI [24] of 6.81 µM. The CC50 ([24]; read-out: LC50) was 31.7 µM, the GI50 [25] was 0.26 µM and the TGI [25] was 0.857 µM. The CC50 ([25]; read-out: LC50) was 8.89 µM, the GI50 [26] was 0.565 µM and the TGI [26] was 1.88 µM. The CC50 ([26]; read-out: LC50) was 4.88 µM, the GI50 [27] was 0.211 µM and the TGI [27] was 1.16 µM. The CC50 ([27]; read-out: LC50) was > 100 µM, the GI50 [28] was 0.215 µM and the TGI [28] was 0.545 µM. For the same molecule, the CC50 ([28]; read-out: LC50) was 1.89 µM, the GI50 [29] was 0.484 µM and the TGI [29] was 1.75 µM. The CC50 ([29]; read-out: LC50) was 4.18 µM, the GI50 [30] was 0.175 µM and the TGI [30] was 0.334 µM. It also gave a CC50 ([30]; read-out: LC50) of 0.64 µM, a GI50 [31] of 0.282 µM and a TGI [31] of 0.678 µM. For the same molecule, the GI50 [32] was 1.65 µM, the TGI [32] was 4.13 µM and the CC50 ([32]; read-out: LC50) was 10.8 µM.
Molecule Cc1cc(C)cc(-c2ccc3c(c2)[N+]([O-])=C2C3=C[C@@]34NC(=O)C5(CCCN5C3=O)CC4C2(C)C)c1 (stereo partly drawn) [Biphenyl Analogue] has a TGI [1] of 0.84 µM, a TGI [2] of 0.813 µM and a TGI [3] of 0.379 µM. It also gave a TGI [4] of 1.06 µM, a TGI [6] of 0.757 µM and a TGI [7] of 0.767 µM. It also gave a TGI [8] of 0.244 µM, a TGI [9] of 0.395 µM and a TGI [10] of 18.9 µM. The TGI [11] was >100 µM, the TGI [12] was 0.59 µM and the TGI [13] was 0.377 µM. For the same molecule, the TGI [14] was 0.74 µM, the TGI [15] was 0.33 µM and the TGI [17] was 0.984 µM. It also gave a TGI [18] of 0.421 µM, a TGI [19] of 0.604 µM and a TGI [20] of 0.707 µM. It also gave a TGI [21] of 1.7 µM, a TGI [22] of 0.324 µM and a TGI [23] of 1.32 µM. It also gave a TGI [24] of 0.614 µM, a TGI [25] of 0.297 µM and a TGI [26] of 0.471 µM. For the same molecule, the TGI [27] was 0.655 µM, the TGI [28] was 0.445 µM and the TGI [29] was 0.322 µM. It also gave a TGI [30] of 0.273 µM, a TGI [31] of 1.08 µM and a TGI [32] of 1.19 µM.
